Laboratory results taken from patent US20230287021A1, “COMPOUNDS, COMPOSITIONS AND METHODS FOR STABILIZING TRANSTHYRETIN AND INHIBITING TRANSTHYRETIN MISFOLDING” (Protego Biopharma, Inc., priority 2020, published 2023).
Counter-ions that a name gives are not always drawn.

assay: In vitro rat plasma stability assay, formation of tafamidis; type: in vitro ADME; details: 37° C., 2 µM test compound
Protocol: A stability assay in plasma (rat or human) was used to evaluate the ability of a compound provided herein to convert to an active TTR stabilizer. The test compound was added to plasma and incubated at 37° C. in a water bath at a concentration of 2 µM. At each time point (0, 10, 30, 60 and 120 min or 0, 60, 120, 180 and 240 min), stop solution (tolbutamide plus labetalol) was added to precipitate protein and mixed thoroughly. After centrifugation, an aliquot of supernatant was analyzed by LC-MS/MS. The percentage of formation of active agent was calculated at each time point.

SMILES | Formation of tafamidis at 120 min
C[N+](C)(C)CCOC(=O)c1ccc2nc(-c3cc(Cl)cc(Cl)c3)oc2c1.[Cl-] [Compound 29, 2-((2-(3,5-dichlorophenyl)benzo[d]oxazole-6-carbonyl)oxy)-N,N,N-trimethylethanaminium chloride] | A (A is <25%)
CC(C)(C)OC(=O)N[C@H](Cc1cccc(OC(=O)c2ccc3nc(-c4cc(Cl)cc(Cl)c4)oc3c2)c1)C(=O)OCc1ccccc1 [Compound 63] | B (B is ≥25 to <50%)
CN1CCN(CCCOC(=O)c2ccc3nc(-c4cc(Cl)cc(Cl)c4)oc3c2)CC1 [Compound 94] | C (C is ≥50 to <75%)
CC(C)(C)OC(=O)N[C@@H](Cc1cccc(OC(=O)c2ccc3nc(-c4cc(Cl)cc(Cl)c4)oc3c2)c1)C(=O)O [Compound 20, (S)-2-((tert-butoxycarbonyl)amino)-3-(3-((2-(3,5-dichlorophenyl)benzo [d]oxazole-6-carbonyl)oxy)phenyl)propanoic acid] | B (B is ≥25 to <50%)
CC(C)(C)OC(=O)N1CCC(OC(=O)c2ccc3nc(-c4cc(Cl)cc(Cl)c4)oc3c2)C1 (stereo not shown) [Compound 16, 1-(tert-butoxycarbonyl)pyrrolidin-3-yl 2-(3,5-dichlorophenyl) benzo[d]oxazole-6-carboxylate] | B (B is ≥25 to <50%)
CC(C)(C)OC(=O)N[C@H](Cc1cccc(OC(=O)c2ccc3nc(-c4cc(Cl)cc(Cl)c4)oc3c2)c1)C(=O)O [Compound 72] | B (B is ≥25 to <50%)
O=C(OCCC1CCOC1)c1ccc2nc(-c3cc(Cl)cc(Cl)c3)oc2c1 (stereo not shown) [Compound 96, 2-(tetrahydrofuran-3-yl)ethyl 2-(3,5-dichlorophenyl)benzo[d] oxazole-6-carboxylate] | C (C is ≥50 to <75%)
O=C(OCCCN1CCS(=O)(=O)CC1)c1ccc2nc(-c3cc(Cl)cc(Cl)c3)oc2c1 [Compound 84] | D (D is ≥75%)
O=C(OCc1ncco1)c1ccc2nc(-c3cc(Cl)cc(Cl)c3)oc2c1 [Compound 91] | C (C is ≥50 to <75%)
CCN(C)CCOC(=O)c1ccc2nc(-c3cc(Cl)cc(Cl)c3)oc2c1 [Compound 43] | C (C is ≥50 to <75%)
O=C(OC[C@H]1O[C@@H](O)C(O)[C@H](O)C1O)c1ccc2nc(-c3cc(Cl)cc(Cl)c3)oc2c1 (stereo partly shown) [Compound 5, (3,4,5,6-Tetrahydroxytetrahydro-2H-pyran-2-yl)methyl 2-(3,5-Dichlorophenyl) Benzo[d]oxazole-6-Carboxylate] | A (A is <25%)
CNCCOC(=O)c1ccc2nc(-c3cc(Cl)cc(Cl)c3)oc2c1 [Compound 9, 2-(methylamino)ethyl 2-(3,5-dichlorophenyl)benzo[d]oxazole-6-carboxylate hydrochloride] | A (A is <25%)
CC(C)(C)OC(=O)N[C@@H](Cc1cccc(OC(=O)c2ccc3nc(-c4cc(Cl)cc(Cl)c4)oc3c2)c1)C(=O)OCc1ccccc1 [Compound 19, (S)-3-(3-(benzyloxy)-2-((tert-butoxycarbonyl)amino)-3-oxopropyl) phenyl 2-(3,5-dichlorophenyl)benzo[d]oxazole-6-carboxylate] | B (B is ≥25 to <50%)
CN(C)CCCCCOC(=O)c1ccc2nc(-c3cc(Cl)cc(Cl)c3)oc2c1 [Compound 51, 5-(dimethylamino)pentyl 2-(3,5-dichlorophenyl)benzo[d] oxazole-6-carboxylate] | D (D is ≥75%)
CN(C)CCOC(=O)c1ccc2nc(-c3cc(Cl)cc(Cl)c3)oc2c1 [Compound 6, 2-(dimethylamino)ethyl 2-(3,5-dichlorophenyl)benzo-[d]oxazole-6-carboxylate hydrochloride] | D (D is ≥75%)
C[C@@H](COC(=O)c1ccc2nc(-c3cc(Cl)cc(Cl)c3)oc2c1)N(C)C [Compound 44, (S)-2-(dimethylamino)propyl 2-(3,5-dichlorophenyl)benzo[d] oxazole-6-carboxylate] | C (C is ≥50 to <75%)
CC(C)(C)OC(=O)N[C@@H](Cc1ccc(OC(=O)c2ccc3nc(-c4cc(Cl)cc(Cl)c4)oc3c2)cc1)C(=O)O [Compound 22, (S)-2-((tert-butoxycarbonyl)amino)-3-(4-((2-(3,5-dichlorophenyl)benzo[d]oxazole-6-carbonyl)oxy)phenyl)propanoic acid] | D (D is ≥75%)
CN(CCOC(=O)c1ccc2nc(-c3cc(Cl)cc(Cl)c3)oc2c1)C(=O)OC(C)(C)C [Compound 8, 2-((tert-butoxycarbonyl)(methyl)amino)ethyl 2-(3,5-dichlorophenyl) benzo[d] oxazole-6-carboxylate] | D (D is ≥75%)
CN(CCO)C(=O)c1ccc2nc(-c3cc(Cl)cc(Cl)c3)oc2c1 [Compound 65, 2-(3,5-dichlorophenyl)-N-(2-hydroxyethyl)-N-methylbenzo [d] oxazole-6-carboxamide] | A (A is <25%)
Cc1oc(=O)oc1COC(=O)c1ccc2nc(-c3cc(Cl)cc(Cl)c3)oc2c1 [Compound 24, (5-methyl-2-oxo-1,3-dioxol-4-yl)methyl 2-(3,5-dichlorophenyl)benzo[d] oxazole-6-carboxylate] | D (D is ≥75%)
O=C(OC1CCOC1=O)c1ccc2nc(-c3cc(Cl)cc(Cl)c3)oc2c1 (stereo not shown) [Compound 21] | B (B is ≥25 to <50%)
O=C(OCCCN1CCNCC1)c1ccc2nc(-c3cc(Cl)cc(Cl)c3)oc2c1 [Compound 83] | D (D is ≥75%)
O=C(OC1CCOC1)c1ccc2nc(-c3cc(Cl)cc(Cl)c3)oc2c1 (stereo not shown) [Compound 95] | D (D is ≥75%)
CC(C)(C)OC(=O)NCCCOC(=O)c1ccc2nc(-c3cc(Cl)cc(Cl)c3)oc2c1 [Compound 31, 3-((tert-butoxycarbonyl)amino)propyl 2-(3,5-dichlorophenyl) benzo [d]oxazole-6-carboxylate] | C (C is ≥50 to <75%)
O=C(OCCCC1CCOC1)c1ccc2nc(-c3cc(Cl)cc(Cl)c3)oc2c1 (stereo not shown) [Compound 100] | D (D is ≥75%)
CC(C)(C)OC(=O)N[C@@H](Cc1ccc(OC(=O)c2ccc3nc(-c4cc(Cl)cc(Cl)c4)oc3c2)cc1)C(=O)OCc1ccccc1 [Compound 18, (S)-4-(3-(benzyloxy)-2-((tert-butoxycarbonyl)amino)-3-oxopropyl) phenyl 2-(3,5-dichlorophenyl)benzo[d]oxazole-6-carboxylate] | C (C is ≥50 to <75%)
O=C(OCCC[P+](c1ccccc1)(c1ccccc1)c1ccccc1)c1ccc2nc(-c3cc(Cl)cc(Cl)c3)oc2c1.[Br-] [Compound 4, (3-(2-(3,5-Dichlorophenyl)benzo[d]oxazole-6-carbonyloxy)propyl) triphenylphosphonium bromide] | A (A is <25%)
CC(C)(C)OC(=O)N[C@H](Cc1ccc(OC(=O)c2ccc3nc(-c4cc(Cl)cc(Cl)c4)oc3c2)cc1)C(=O)O [Compound 70] | B (B is ≥25 to <50%)
